Source: ChEMBL document CHEMBL1144734, “Inhibitory effect of xanthones isolated from the pericarp of Garcinia mangostana L. on rat basophilic leukemia RBL-2H3 cell degranulation” (Bioorg Med Chem, 2008)
Active and inactive are the calls of the source. No cut-off for these calls is given here.

Tests used:
RBL-2H3 [1] = assay: Inhibition of DNP-BSA stimulated histamine release in IgE-sensitized rat RBL2H3 cells after 30 mins; type: functional, cell-based
RBL-2H3 [2] = assay: Inhibition of A23187-induced degranulation in rat RBL2H3 cells; type: functional, cell-based
RBL-2H3 [3] = assay: Inhibition of DNP-BSA induced intracellular calcium elevation in IgE-sensitized rat RBL2H3 cells at 20 uM after 30 mins; type: functional, cell-based
RBL-2H3 [4] = assay: Decrease in FcepsilonRI-induced intracellular ROS level in IgE-sensitized rat RBL2H3 cells assessed as DCF oxidation at 20 uM after 30 mins; type: functional, cell-based
[5] = molecular target: Tyrosine-protein kinase Lyn (Rattus norvegicus) (UniProt Q07014); assay: Inhibition of Lyn phosphorylation in IgE-sensitized rat RBL2H3 cells at 20 uM; type: cell-based; conditions: RBL-2H3
Tyrosine-protein kinase Lyn (Rattus norvegicus), sequence (Q07014 whole entry): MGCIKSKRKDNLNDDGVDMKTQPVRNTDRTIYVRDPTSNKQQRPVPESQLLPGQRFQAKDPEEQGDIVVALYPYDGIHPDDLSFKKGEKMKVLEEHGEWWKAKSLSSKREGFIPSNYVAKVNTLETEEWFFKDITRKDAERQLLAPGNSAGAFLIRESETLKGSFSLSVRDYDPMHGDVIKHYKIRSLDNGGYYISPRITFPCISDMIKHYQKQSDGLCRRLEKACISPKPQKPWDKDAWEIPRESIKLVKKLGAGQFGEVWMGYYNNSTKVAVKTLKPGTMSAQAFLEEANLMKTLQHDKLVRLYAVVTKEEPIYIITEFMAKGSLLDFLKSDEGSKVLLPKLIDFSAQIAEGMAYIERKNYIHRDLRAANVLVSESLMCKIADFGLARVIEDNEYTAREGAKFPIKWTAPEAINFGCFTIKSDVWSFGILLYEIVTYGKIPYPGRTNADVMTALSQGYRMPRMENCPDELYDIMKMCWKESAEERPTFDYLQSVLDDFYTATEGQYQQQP

[6] = molecular target: Tyrosine-protein kinase SYK (Rattus norvegicus) (UniProt Q64725); assay: Inhibition of Syk phosphorylation in IgE-sensitized rat RBL2H3 cells at 20 uM; type: cell-based; conditions: RBL-2H3
Tyrosine-protein kinase SYK (Rattus norvegicus), sequence (Q64725 whole entry, looked up): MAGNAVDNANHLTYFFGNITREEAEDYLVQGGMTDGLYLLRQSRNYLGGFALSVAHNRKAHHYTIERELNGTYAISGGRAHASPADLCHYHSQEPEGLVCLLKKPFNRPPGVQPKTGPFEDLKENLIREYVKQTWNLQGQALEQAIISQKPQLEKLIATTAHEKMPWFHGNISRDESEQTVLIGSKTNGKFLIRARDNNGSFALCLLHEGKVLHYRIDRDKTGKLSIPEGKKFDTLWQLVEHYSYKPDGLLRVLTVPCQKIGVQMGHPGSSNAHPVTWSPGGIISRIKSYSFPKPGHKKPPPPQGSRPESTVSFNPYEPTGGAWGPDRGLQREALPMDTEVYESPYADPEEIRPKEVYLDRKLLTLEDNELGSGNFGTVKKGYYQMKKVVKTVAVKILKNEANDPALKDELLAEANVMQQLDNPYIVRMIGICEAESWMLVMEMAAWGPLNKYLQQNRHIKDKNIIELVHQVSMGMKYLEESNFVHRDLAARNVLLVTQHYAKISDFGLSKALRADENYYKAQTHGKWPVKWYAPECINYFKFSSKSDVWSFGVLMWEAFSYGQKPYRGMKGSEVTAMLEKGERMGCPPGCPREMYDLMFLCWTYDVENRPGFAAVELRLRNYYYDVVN

RBL-2H3 [7] = assay: Inhibition of p38 phosphorylation in IgE-sensitized rat RBL2H3 cells at 20 uM; type: cell-based
[8] = molecular target: Mitogen-activated protein kinase 1 (ERK2), Rattus norvegicus (UniProt P63086); assay: Inhibition of ERK2 phosphorylation in IgE-sensitized rat RBL2H3 cells at 20 uM; conditions: RBL-2H3
Mitogen-activated protein kinase 1 (ERK2), Rattus norvegicus, sequence (P63086 whole entry, looked up): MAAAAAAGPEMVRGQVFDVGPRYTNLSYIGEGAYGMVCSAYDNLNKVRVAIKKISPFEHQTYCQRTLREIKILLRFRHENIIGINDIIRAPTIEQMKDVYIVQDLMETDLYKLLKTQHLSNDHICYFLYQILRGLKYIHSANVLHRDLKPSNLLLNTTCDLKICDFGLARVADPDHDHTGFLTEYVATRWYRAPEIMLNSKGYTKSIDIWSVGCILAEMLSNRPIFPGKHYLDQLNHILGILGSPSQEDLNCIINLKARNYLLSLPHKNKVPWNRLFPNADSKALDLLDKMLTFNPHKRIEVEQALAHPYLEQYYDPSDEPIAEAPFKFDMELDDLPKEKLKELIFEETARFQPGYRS

[9] = molecular target: Mitogen-activated protein kinase 9 (JNK2), Rattus norvegicus (UniProt P49186); assay: Inhibition of JNK2 phosphorylation in IgE-sensitized rat RBL2H3 cells at 20 uM; conditions: RBL-2H3
Mitogen-activated protein kinase 9 (JNK2), Rattus norvegicus, sequence (P49186 whole entry, looked up): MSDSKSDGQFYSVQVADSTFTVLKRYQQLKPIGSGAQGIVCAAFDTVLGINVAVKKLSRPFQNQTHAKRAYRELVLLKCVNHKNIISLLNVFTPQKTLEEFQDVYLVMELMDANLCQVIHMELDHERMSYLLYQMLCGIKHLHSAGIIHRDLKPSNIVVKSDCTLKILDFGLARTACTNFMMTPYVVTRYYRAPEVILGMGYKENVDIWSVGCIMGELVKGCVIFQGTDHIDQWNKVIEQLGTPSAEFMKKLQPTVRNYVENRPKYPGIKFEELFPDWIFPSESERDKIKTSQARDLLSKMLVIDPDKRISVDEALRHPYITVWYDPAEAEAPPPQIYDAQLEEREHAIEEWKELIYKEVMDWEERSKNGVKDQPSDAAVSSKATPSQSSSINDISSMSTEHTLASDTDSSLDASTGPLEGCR

[10] = molecular target: Mitogen-activated protein kinase 3 (ERK1), Rattus norvegicus (UniProt P21708); assay: Inhibition of ERK1 phosphorylation in IgE-sensitized rat RBL2H3 cells at 20 uM; conditions: RBL-2H3
Mitogen-activated protein kinase 3 (ERK1), Rattus norvegicus, sequence (P21708 whole entry, looked up): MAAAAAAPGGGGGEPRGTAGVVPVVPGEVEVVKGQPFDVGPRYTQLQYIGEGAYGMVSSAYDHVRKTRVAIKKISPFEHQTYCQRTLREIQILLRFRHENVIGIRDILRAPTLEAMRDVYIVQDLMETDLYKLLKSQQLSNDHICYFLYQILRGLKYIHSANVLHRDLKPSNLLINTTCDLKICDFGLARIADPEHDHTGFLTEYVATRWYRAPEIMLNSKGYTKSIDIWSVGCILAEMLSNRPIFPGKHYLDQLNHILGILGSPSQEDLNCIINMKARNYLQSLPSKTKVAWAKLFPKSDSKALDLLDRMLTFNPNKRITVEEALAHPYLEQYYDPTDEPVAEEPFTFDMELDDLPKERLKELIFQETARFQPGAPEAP

[11] = molecular target: Mitogen-activated protein kinase 8 (JNK1), Rattus norvegicus (UniProt P49185); assay: Inhibition of JNK1 phosphorylation in IgE-sensitized rat RBL2H3 cells at 20 uM; conditions: RBL-2H3
Mitogen-activated protein kinase 8 (JNK1), Rattus norvegicus, sequence (P49185 whole entry, looked up): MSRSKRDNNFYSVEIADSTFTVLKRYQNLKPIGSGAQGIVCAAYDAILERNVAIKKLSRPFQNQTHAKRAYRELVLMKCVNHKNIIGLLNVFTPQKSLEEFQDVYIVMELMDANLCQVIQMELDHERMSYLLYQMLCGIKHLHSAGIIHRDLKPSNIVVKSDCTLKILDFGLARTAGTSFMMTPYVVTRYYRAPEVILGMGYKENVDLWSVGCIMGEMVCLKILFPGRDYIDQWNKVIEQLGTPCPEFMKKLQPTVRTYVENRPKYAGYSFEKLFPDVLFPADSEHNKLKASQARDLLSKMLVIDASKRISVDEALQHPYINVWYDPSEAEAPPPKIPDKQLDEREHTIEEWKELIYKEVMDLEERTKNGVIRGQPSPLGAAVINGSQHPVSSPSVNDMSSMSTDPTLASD

[12] = molecular target: Mitogen-activated protein kinase 1 (ERK2), Rattus norvegicus (UniProt P63086); assay: Inhibition of ERK2 phosphorylation in IgE-sensitized rat RBL2H3 cells […] at 2 uM after 30 mins; conditions: RBL-2H3
[13] = molecular target: Tyrosine-protein kinase SYK (Rattus norvegicus) (UniProt Q64725); assay: Inhibition of ERK1 phosphorylation in IgE-sensitized rat RBL2H3 cells […] at 50 uM after 30 mins; type: cell-based; conditions: RBL-2H3
[14] = molecular target: Tyrosine-protein kinase SYK (Rattus norvegicus) (UniProt Q64725); assay: Inhibition of ERK2 phosphorylation in IgE-sensitized rat RBL2H3 cells […] at 50 uM after 30 mins; type: cell-based; conditions: RBL-2H3
[15] = molecular target: Mitogen-activated protein kinase 3 (ERK1), Rattus norvegicus (UniProt P21708); assay: Inhibition of ERK1 phosphorylation in IgE-sensitized rat RBL2H3 cells […] at 2 uM after 30 mins; conditions: RBL-2H3
[16] = molecular target: Mitogen-activated protein kinase 1 (ERK2), Rattus norvegicus (UniProt P63086); assay: Inhibition of ERK2 phosphorylation in IgE-sensitized rat RBL2H3 cells […] at 100 uM after 30 mins; conditions: RBL-2H3
[17] = molecular target: Mitogen-activated protein kinase 3 (ERK1), Rattus norvegicus (UniProt P21708); assay: Inhibition of ERK1 phosphorylation in IgE-sensitized rat RBL2H3 cells […] at 100 uM after 30 mins; conditions: RBL-2H3
[18] = test system: Radical scavenging activity; assay: Antioxidant activity assessed as DPPH radical scavenging activity; type: functional
[19] = test system: Phospholipase C-gamma-1, Rattus norvegicus; assay: Inhibition of PLC-gamma1 phosphorylation in IgE-sensitized rat RBL2H3 cells at 20 uM; conditions: RBL-2H3
[20] = test system: Phospholipase C-gamma-2, Rattus norvegicus; assay: Inhibition of PLC-gamma2 phosphorylation in IgE-sensitized rat RBL2H3 cells at 20 uM; conditions: RBL-2H3

SMILES	Activity (RBL-2H3 [1])	Activity (RBL-2H3 [2])	Activity (RBL-2H3 [3])	Activity (RBL-2H3 [4])	Activity [5]	Activity [6]	Activity (RBL-2H3 [7])	Activity [8]	Activity [9]	Activity [10]	Activity [11]	also measured
COc1c(O)cc2oc3cc(O)c(CC=C(C)C)c(O)c3c(=O)c2c1CC=C(C)C	Dose-dependent effect	inactive	Active	inactive	inactive	Active	inactive	Active	inactive	Active	inactive	–
O=c1cc(N2CCOCC2)oc2c(-c3ccccc3)cccc12	–	Active	–	–	–	–	–	–	–	–	–	Activity [12]: inactive
COc1c(C[C@@H](C)OC(=O)Oc2ccc(O)cc2)c2c3c(C[C@@H](C)OC(=O)c4ccccc4)c(OC)c(=O)c4c(O)cc(OC)c(c5c(OC)cc(O)c(c1=O)c52)c43	–	–	–	–	–	–	–	–	–	–	–	Activity [13]: inactive; Activity [14]: inactive
COc1ccc2c(c1)c(C1=C(c3c[nH]c4ccccc34)C(=O)NC1=O)cn2CCCN(C)C	–	–	–	–	–	–	–	–	–	–	–	Activity [15]: inactive; Activity [16]: inactive
CC(=O)c1c(O)c(C)c(O)c(Cc2c(O)c3c(c(C(=O)/C=C/c4ccccc4)c2O)OC(C)(C)C=C3)c1O	–	–	–	–	–	–	–	–	–	–	–	Activity [12]: inactive; Activity [17]: inactive
CC(C)=CCc1c(O)cc2oc3cc(O)c(O)c(CC=C(C)C)c3c(=O)c2c1O	Dose-dependent effect	inactive	Active	Active	inactive	Active	inactive	Active	inactive	Active	inactive	Activity [18]: Active
COc1cc2oc3cc(O)c(OC)c(CC=C(C)C)c3c(=O)c2c(O)c1CC=C(C)C	Dose-dependent effect	inactive	Active	inactive	inactive	Active	inactive	Active	inactive	Active	inactive	Activity [19]: Active; Activity [20]: Active
CN(C)C[C@H]1CCn2c(c(C3=C(c4cn(C)c5ccccc45)C(=O)NC3=O)c3ccccc32)C1	–	–	–	–	–	–	–	–	–	–	–	Activity [16]: inactive; Activity [17]: inactive
